“Also recorded” adds a separate entry of the source.
What was measured:
[1] = tested on: Stat3; test: Western blot of Stat3 and pStat3 in Cal-27 cells treated with PGG; assay type: cell-based; details: 48 hours
Protocol: (§1) Squamous cell carcinoma cells (Cal 27) were purchased from ATCC (CRL-2095) and grown in DMEM with Glutamax, 10% FBS and Penicillin/Streptomycin (1055-024, 15140-122, 10438-018 Gibco-ThermoFischer Scientific) and kept at 37° C. in a humidified air chamber with 5% CO2. Cells were seeded at 3×10^5 cells/flask for the experiments and then grown to confluency. Cells between 3 and 10 passages were used for all experiments. 1,2,3,4,6-Penta-O-galloyl-β-D-glucose (G7548, Sigma-Aldrich) was dissolved in dimethylsulfoxide (DMSO) to obtain a 100 mM stock solution. Subsequent dilutions were done using water, and no flask contained more than 0.5 μL of DMSO (0.01%). […] During the protein extraction, media were collected, flash frozen and saved for BCA, Western Blot, and ELISA analysis. […] The proteins were detected and visualized by fluorescence using the LI-COR Odyssey Classic Infrared Imaging system (LI-COR Biosciences). Densitometry analysis of specific bands was performed with the Image Studio software provided by LI-COR Biosciences and the images analyzed using ImageStudio (LI-COR Biosciences). Statistical analysis, including one-way ANOVA with Dunnett's Multiple Comparison Test and Bonferroni, was done using GraphPad Prism 7 (Graph-Pad Software, La Jolla, CA, USA). p values were calculated using the unpaired two-sided Student's t test to compare groups, with statistical significance set at p<0.05.

[2] = tested on: MyD88 adaptor protein; details: peritoneal and colonic macrophages; cited from earlier work
[3] = tested on: MMP-9; test: Western blot of MMP-9 protein expression/secretion in Cal-27 cells treated with PGG; assay type: cell-based; details: 48 hours
Protocol: as §1

[4] = tested on: peripheral blood mononuclear cells (PBMCs); details: PBMCs treated with PGG; cited from earlier work
[5] = tested on: Cal 27 cells; test: Transmembrane/Boyden Matrigel invasion assay; assay type: cell-based; details: for percentage of cells invading the membrane compared with untreated control: 24 hour treatment; for Number of cells invading through Matrigel: 24 hour
Protocol: Squamous cell carcinoma cells (Cal 27) were purchased from ATCC (CRL-2095) and grown in DMEM with Glutamax, 10% FBS and Penicillin/Streptomycin (1055-024, 15140-122, 10438-018 Gibco-ThermoFischer Scientific) and kept at 37° C. in a humidified air chamber with 5% CO2. Cells were seeded at 3×10^5 cells/flask for the experiments and then grown to confluency. Cells between 3 and 10 passages were used for all experiments. Transmembrane/Boyden assay plates with Matrigel were purchased from Corning. DMEM with 10% FBS was used as a chemoattractant in the lower chamber while the cells in the upper chamber were cultured in DMEM with 1% FBS. Wells were prepared with different concentrations of PGG (0-10 μM) and left to incubate for 24 hour. After 24 hour media has discarded and the cells invading the Matrigel were counted according to established protocols.

[6] = tested on: MMP-13 gene; test: Real time quantitative PCR of MMP-13 gene expression in Cal-27 cells; assay type: cell-based, Human; details: 10 or 20 μM PGG, p<0.05 and p<0.001
Protocol: (§2) Squamous cell carcinoma cells (Cal 27) were purchased from ATCC (CRL-2095) and grown in DMEM with Glutamax, 10% FBS and Penicillin/Streptomycin (1055-024, 15140-122, 10438-018 Gibco-ThermoFischer Scientific) and kept at 37° C. in a humidified air chamber with 5% CO2. Cells were seeded at 3×10^5 cells/flask for the experiments and then grown to confluency. Cells between 3 and 10 passages were used for all experiments. 1,2,3,4,6-Penta-O-galloyl-β-D-glucose (G7548, Sigma-Aldrich) was dissolved in dimethylsulfoxide (DMSO) to obtain a 100 mM stock solution. Subsequent dilutions were done using water, and no flask contained more than 0.5 μL of DMSO (0.01%). […] After washing the tissue culture with 1× phosphate buffered saline (PBS), the cells were lysed, and the RNA purified using a Qiagen RNeasy mini kit using the manufacturer's recommended protocol. All samples were treated with Qiagen DNase. One microgram of RNA was used for reverse transcription and subsequent SYBR® Green real time PCR for the genes of interest as previously described. […] Real time quantitative PCR was performed using an Applied Biosciences StepOne plus instrument and analyzed with StepOne software v2.3. The relative amounts of transcripts from each gene were normalized to reference gene GAPDH and calculated as follows: ΔΔCT=the average ΔCT of […]−the average ΔCT of […], and their fold difference=2−ΔΔCT.

[7] = tested on: MMP-13; test: Western blot of MMP-13 protein expression/release in Cal-27 cells treated with PGG; assay type: cell-based; details: 48 hours
Protocol: as §1

[8] = tested on: toll-like receptors 4 (TLR4); details: peritoneal and colonic macrophages; cited from earlier work
[9] = tested on: TNF-α; details: doses as low as 5 μM; cited from earlier work
[10] = tested on: MMP-9 gene; test: Real time quantitative PCR of MMP-9 gene expression in Cal-27 cells; assay type: cell-based, Human; details: any PGG dose (1, 2.5, 5, 10 and 20 μM), n=4, p>0.05
Protocol: as §2

[11] = tested on: MMP-14 gene; test: Real time quantitative PCR of MMP-14 gene expression in Cal-27 cells; assay type: cell-based, Human; details: PGG 10-20 μM
Protocol: as §2

[12] = tested on: MMP-2; test: Western blot of MMP-2 protein expression/release in Cal-27 cells treated with PGG; assay type: cell-based; details: 48 hours, cell media
Protocol: as §1

[13] = tested on: MMP-2 gene; test: Real time quantitative PCR of MMP-2 gene expression in Cal-27 cells; assay type: cell-based, Human
Protocol: as §2

For `O=C(OC[C@H]1O[C@@H](OC(=O)c2cc(O)c(O)c(O)c2)[C@H](OC(=O)c2cc(O)c(O)c(O)c2)[C@@H](OC(=O)c2cc(O)c(O)c(O)c2)[C@@H]1OC(=O)c1cc(O)c(O)c(O)c1)c1cc(O)c(O)c(O)c1` [PGG, 1,2,3,4,6-penta-O-galloyl-β-D-glucose], the “Stat3 phosphorylation (pStat3)” value ([1]; PGG at different concentrations, normalized to Histone H3, n=4, p<0.0001) is listed as “significantly decreases; also recorded: decrease of Stat3 phosphorylation”, the “Non-phosphorylated / total Stat3 vs non-treated cells” value ([1]; PGG at varying concentrations, n=4, p<0.0001) is listed as “significantly higher; also recorded: increase in total Stat3” and the “interaction with MyD88 adaptor protein; effect on TNF-α, IL-1β and IL-6 production” value [2] is listed as “interacted directly with MyD88 adaptor protein thereby decreasing the production of TNF-α, IL-1β and IL-6”. The “MMP-9 expression vs non-treated group” value ([3]; 1 or 2.5 μM PGG, normalized to Histone H3, n=4, p>0.05) was “not significantly different”, the “MMP-9 expression vs non-treated group” value ([3]; 5 or 10 μM PGG, normalized to Histone H3, n=4, p<0.05 and p<0.01) was “significantly decreased; also recorded: significantly lower” and the “production of TNF-α and IL-1β” value [4] was “resulted in the production of TNF-α and IL-1β”. For the same compound, the “percentage of cells invading the membrane compared with untreated control” value ([5]; 0.5 μM PGG) was 44.5%, the “percentage of cells invading the membrane compared with untreated control” value ([5]; 10 μM PGG (maximum effect)) was 22.3% and the “Number of cells invading through Matrigel” value ([5]; PGG 0.5 and 1 μM, n=4, p<0.001) was “significantly lower”. For the same compound, the “Number of cells invading through Matrigel” value ([5]; PGG 2.5, 5 and 10 μM, n=4, p<0.0001) was “significantly lower”, the “MMP-13 gene expression (mRNA)” value [6] was “decreased; also recorded: reduces” and the “MMP-13 expression vs non-treated group” value ([7]; Cal-27 cells, 10 μM PGG, normalized to Histone H3, n=4, p<0.01) was “significantly decreased; also recorded: significantly lower”. The “MMP-13 expression vs non-treated group” value ([7]; Cal-27 cells, 1, 2.5 or 5 μM PGG, normalized to Histone H3, n=4, p>0.05) was “not significantly different”, the “interference with binding of LPS to TLR4” value [8] was “did not interfere” and the “suppression of LPS-induced TNF-α production” value [9] was ≤ 90%. The “MMP-9 gene expression (mRNA) vs non-treated group” value [10] was “not significantly different; also recorded: did not significantly decrease”, the “MMP-14 gene expression (mRNA) vs non-treated” value [11] was “reduces” and the “MMP-2 expression vs non-treated group” value ([12]; Cal-27 cells, 10 μM PGG, n=4, p<0.01) was “significantly decreased; also recorded: significantly lower”. The “MMP-2 expression vs non-treated group” value ([12]; Cal-27 cells, 1, 2.5 or 5 μM PGG, n=4, p>0.05) was “not significantly different”, the “MMP-2 gene expression (mRNA)” value ([13]; PGG 5 and 10 μM, GAPDH housekeeping, n=4, p<0.0001) was “significantly decreased” and the “MMP-2 gene expression (mRNA) vs non-treated” value ([13]; PGG 10-20 μM) was “reduces”.

Reference: patent publication US20240342203A1, “COMPOSITIONS FOR ORAL CANCER OR AN OROPHARYNGEAL CANCER” (GR BIOSYSTEMS, INC., priority 2020, published 2024)
